We go through 13 molecules from ChEMBL document CHEMBL3991601, “The target landscape of clinical kinase drugs” (Science, 2017).

The source made the active and inactive calls. Some results are limits rather than exact numbers.

In one assay the target is Actin-related protein 2 (Homo sapiens, UniProt P61160).
Assay [1] concerns the target Mitotic checkpoint serine/threonine-protein kinase BUB1 (Homo sapiens, UniProt O43683).
In assay [2] the target is T1, Cysteine--tRNA ligase, cytoplasmic (Homo sapiens, UniProt P49589).
T1 sequence (P49589 whole entry): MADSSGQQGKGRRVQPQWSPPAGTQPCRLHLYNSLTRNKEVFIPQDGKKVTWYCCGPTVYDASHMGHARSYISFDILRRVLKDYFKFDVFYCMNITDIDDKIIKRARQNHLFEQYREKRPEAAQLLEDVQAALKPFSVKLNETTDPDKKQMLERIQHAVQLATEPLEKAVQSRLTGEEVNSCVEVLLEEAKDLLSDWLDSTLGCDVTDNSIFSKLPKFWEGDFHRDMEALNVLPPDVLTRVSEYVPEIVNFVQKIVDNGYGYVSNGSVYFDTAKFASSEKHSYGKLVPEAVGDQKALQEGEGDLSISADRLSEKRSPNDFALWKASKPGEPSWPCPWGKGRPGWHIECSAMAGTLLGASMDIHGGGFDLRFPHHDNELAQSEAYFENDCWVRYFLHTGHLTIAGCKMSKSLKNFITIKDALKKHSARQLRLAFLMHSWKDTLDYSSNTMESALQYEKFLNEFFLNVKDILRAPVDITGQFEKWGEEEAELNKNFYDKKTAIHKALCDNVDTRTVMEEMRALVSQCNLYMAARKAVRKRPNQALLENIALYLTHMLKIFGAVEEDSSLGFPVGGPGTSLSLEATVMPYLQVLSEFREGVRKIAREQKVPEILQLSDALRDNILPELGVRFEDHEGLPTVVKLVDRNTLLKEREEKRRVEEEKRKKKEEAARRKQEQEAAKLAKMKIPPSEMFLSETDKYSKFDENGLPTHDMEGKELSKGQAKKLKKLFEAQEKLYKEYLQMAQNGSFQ

Assay [3] has as its target Cyclin-dependent kinase 1 (Homo sapiens, UniProt P06493).
In a further assay the target is T2, Ephrin type-B receptor 6 (Homo sapiens, UniProt O15197).
T2 sequence (O15197 whole entry): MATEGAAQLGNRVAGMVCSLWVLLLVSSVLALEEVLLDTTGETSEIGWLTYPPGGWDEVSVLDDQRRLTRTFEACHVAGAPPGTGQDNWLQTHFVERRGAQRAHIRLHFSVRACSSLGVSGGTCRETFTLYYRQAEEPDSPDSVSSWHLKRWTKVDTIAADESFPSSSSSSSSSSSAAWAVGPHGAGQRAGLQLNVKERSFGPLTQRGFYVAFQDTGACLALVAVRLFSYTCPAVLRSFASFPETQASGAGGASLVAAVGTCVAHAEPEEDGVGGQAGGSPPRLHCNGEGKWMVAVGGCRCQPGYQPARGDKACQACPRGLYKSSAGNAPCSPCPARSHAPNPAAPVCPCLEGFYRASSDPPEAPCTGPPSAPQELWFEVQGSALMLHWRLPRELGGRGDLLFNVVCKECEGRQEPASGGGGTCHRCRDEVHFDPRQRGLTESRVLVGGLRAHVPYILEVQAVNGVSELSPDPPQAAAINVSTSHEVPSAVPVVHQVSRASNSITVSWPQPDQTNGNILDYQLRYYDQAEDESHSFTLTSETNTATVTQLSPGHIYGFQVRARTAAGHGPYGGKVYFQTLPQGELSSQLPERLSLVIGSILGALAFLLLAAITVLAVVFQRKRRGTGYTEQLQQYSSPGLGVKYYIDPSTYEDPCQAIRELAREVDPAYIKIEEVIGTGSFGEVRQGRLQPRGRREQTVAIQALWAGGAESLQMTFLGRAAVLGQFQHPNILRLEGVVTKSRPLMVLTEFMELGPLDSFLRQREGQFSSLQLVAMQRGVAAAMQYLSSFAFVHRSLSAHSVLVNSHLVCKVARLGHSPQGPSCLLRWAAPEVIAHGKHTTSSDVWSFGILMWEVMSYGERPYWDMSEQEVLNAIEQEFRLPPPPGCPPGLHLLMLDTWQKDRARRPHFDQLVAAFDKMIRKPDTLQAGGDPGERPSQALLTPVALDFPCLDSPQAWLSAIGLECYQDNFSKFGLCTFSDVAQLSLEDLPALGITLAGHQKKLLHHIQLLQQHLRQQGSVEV

Assay [4] has as its target T3, Ras-related protein Rab-27A (Homo sapiens, UniProt P51159).
T3 sequence (P51159 whole entry): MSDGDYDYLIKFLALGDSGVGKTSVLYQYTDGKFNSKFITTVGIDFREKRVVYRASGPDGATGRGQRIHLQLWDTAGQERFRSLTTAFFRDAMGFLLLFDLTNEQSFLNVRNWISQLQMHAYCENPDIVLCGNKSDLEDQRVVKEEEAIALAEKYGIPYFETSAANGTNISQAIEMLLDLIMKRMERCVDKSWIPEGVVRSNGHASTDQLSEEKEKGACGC

Assay [5] has as its target Non-receptor tyrosine-protein kinase TYK2 (Homo sapiens, UniProt P29597).
The target of assay [6] is Cyclin-dependent kinase 7 (Homo sapiens, UniProt P50613).
Cyclin-dependent kinase 7, sequence (P50613 whole entry): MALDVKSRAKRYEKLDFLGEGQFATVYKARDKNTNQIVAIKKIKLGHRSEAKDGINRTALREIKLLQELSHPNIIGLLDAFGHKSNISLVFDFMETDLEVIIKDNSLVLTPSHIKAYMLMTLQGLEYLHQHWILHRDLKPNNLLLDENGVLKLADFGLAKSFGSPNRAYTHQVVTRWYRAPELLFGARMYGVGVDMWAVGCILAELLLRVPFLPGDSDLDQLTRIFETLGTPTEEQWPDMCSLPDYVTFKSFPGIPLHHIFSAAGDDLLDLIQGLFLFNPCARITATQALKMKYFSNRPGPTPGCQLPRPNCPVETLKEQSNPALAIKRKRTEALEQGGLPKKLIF
Assay [7] has as its target Glycogen synthase kinase-3 alpha (Homo sapiens, UniProt P49840).
The target of assay [8] is T4, Signal recognition particle receptor subunit alpha (Homo sapiens, UniProt P08240).
T4 sequence (P08240 whole entry): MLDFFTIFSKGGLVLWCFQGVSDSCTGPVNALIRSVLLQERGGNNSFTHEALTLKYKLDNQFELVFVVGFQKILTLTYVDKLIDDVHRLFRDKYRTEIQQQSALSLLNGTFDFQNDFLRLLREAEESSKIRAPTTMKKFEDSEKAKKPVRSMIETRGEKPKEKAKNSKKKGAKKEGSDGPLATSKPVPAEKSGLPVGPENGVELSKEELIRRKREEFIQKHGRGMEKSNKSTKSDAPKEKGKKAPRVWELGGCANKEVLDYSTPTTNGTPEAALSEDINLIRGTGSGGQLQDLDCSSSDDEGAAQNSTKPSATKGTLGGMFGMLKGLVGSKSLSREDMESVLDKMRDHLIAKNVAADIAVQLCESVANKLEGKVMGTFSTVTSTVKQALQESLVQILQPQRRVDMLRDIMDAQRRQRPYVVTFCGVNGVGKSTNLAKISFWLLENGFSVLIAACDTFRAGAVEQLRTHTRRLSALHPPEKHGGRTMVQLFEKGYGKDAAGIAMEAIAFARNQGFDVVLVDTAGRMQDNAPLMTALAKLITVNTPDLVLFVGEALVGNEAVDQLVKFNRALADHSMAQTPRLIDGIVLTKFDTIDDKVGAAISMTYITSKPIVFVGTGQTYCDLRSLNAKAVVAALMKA
Also: in the data inactive means no Kd found up to 30 µM.

Non-receptor tyrosine-protein kinase TYK2, sequence (P29597 whole entry): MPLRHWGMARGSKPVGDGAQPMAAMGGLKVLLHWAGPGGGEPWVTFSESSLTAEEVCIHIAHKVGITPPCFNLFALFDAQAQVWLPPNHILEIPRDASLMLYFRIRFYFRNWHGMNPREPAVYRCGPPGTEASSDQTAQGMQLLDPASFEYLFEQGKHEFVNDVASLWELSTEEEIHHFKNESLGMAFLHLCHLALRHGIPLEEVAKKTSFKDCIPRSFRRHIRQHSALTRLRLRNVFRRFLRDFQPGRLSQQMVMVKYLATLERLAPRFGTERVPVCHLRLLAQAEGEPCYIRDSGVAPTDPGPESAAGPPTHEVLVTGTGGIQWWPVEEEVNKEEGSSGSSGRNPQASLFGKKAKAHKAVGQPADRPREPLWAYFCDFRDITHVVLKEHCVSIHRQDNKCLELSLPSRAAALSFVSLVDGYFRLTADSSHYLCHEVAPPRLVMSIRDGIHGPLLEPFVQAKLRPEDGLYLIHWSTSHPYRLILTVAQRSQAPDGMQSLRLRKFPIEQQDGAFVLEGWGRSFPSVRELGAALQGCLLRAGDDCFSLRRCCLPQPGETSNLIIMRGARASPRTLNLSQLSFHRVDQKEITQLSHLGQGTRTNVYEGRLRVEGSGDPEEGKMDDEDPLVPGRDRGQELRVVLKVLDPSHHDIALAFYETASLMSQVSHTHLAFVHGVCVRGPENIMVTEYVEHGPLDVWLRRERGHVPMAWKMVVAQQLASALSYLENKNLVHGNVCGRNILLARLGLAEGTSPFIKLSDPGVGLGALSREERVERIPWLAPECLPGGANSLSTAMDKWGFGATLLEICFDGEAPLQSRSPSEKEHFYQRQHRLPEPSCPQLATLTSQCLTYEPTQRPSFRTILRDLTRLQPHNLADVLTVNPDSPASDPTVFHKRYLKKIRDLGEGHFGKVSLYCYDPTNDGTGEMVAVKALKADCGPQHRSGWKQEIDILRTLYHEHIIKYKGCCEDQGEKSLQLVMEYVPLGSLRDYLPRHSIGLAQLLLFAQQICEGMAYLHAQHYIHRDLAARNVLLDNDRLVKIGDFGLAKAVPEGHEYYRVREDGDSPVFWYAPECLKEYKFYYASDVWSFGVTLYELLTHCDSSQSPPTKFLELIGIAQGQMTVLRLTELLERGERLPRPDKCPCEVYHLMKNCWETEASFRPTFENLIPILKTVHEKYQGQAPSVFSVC
Cyclin-dependent kinase 1, sequence (P06493 whole entry): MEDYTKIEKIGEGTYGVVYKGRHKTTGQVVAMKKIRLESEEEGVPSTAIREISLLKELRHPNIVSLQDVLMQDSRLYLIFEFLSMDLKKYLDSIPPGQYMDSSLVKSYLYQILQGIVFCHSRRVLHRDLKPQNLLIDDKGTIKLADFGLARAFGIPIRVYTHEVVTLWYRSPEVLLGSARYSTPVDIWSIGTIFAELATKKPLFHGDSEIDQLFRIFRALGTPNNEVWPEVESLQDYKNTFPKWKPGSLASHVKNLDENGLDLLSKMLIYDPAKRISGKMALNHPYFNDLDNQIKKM
Glycogen synthase kinase-3 alpha, sequence (P49840 whole entry): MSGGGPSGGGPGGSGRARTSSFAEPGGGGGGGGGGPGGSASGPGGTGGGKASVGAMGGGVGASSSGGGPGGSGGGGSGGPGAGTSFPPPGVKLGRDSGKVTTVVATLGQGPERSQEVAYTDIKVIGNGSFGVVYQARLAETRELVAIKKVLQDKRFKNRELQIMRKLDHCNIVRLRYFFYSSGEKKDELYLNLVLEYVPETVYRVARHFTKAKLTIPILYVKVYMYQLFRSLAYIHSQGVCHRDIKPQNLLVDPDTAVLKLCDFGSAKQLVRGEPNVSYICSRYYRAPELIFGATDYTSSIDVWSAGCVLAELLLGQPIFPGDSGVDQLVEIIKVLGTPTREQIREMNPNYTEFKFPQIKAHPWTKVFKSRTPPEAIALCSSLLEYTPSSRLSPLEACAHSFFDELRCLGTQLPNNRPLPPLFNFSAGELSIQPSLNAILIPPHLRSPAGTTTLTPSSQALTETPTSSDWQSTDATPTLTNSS
Mitotic checkpoint serine/threonine-protein kinase BUB1, sequence (O43683 whole entry): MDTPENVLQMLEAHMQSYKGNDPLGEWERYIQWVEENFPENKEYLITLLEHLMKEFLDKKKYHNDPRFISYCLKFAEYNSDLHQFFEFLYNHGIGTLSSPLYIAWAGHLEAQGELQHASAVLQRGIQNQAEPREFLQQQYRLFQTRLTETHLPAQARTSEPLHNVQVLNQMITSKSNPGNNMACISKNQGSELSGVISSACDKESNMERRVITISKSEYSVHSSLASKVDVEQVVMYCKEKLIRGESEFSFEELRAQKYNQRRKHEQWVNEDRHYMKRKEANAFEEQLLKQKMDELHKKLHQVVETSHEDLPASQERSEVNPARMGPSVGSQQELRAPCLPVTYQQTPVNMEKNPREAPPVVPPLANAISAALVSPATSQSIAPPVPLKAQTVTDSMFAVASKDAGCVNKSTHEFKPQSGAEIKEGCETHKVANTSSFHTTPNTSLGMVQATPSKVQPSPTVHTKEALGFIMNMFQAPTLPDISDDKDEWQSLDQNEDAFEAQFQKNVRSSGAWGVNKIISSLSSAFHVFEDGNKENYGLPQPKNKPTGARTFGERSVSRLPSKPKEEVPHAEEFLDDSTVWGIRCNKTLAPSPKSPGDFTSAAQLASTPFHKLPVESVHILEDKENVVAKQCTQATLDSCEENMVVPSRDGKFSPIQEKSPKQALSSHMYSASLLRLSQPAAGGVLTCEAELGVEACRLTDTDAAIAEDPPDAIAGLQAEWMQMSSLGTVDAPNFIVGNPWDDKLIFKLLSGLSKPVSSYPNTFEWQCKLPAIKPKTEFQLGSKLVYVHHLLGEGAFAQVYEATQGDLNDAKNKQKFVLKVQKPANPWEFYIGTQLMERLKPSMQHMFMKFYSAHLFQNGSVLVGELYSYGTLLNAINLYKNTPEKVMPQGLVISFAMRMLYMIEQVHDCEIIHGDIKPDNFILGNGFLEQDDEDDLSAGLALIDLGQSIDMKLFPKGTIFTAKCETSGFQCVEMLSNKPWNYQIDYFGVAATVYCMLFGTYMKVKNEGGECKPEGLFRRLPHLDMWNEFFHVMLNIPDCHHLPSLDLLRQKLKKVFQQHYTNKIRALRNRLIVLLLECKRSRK

For the molecule `OCCn1cc(-c2cnc3nnn(Cc4ccc5ncccc5c4)c3n2)cn1` [PF-04217903], the Kd (on Actin-related protein 2; in assay [1]; in assay [2]; in [3]; at Ephrin type-B receptor 6; in assay [4]) was > 30 µM (inactive) each time. Moreover, the Kd in assay [5] is > 30 µM (inactive).

For the molecule `CCCS(=O)(=O)Nc1ccc(F)c(C(=O)c2c[nH]c3ncc(-c4ccc(Cl)cc4)cc23)c1F` [VEMURAFENIB], the Kd (on Actin-related protein 2; in assay [1]; in assay [2]; in assay [3]; in [6]; at Ephrin type-B receptor 6) was > 30 µM (inactive) throughout. Moreover, the Kd in [7], in assay [4] and in assay [5] was > 30 µM (inactive) throughout.

For `CNC(=O)CN1CCC(Oc2cc3c(Nc4cccc(Cl)c4F)ncnc3cc2OC)CC1` [SAPITINIB], the Kd (at Actin-related protein 2; in assay [1]; in [2]; in assay [3]; in assay [6]; at Ephrin type-B receptor 6) was > 30 µM (inactive) each time. In addition, the Kd in assay [7], in assay [4] and in [5] was > 30 µM (inactive) each time.

As for `CCn1c(-c2nonc2N)nc2c(C#CC(C)(C)O)ncc(OC[C@H]3CCCNC3)c21` [GSK-690693], the Kd (on Actin-related protein 2; in assay [1]; in assay [2]; in [3]; in assay [4]; in assay [8]) was > 30 µM (inactive) in each case.

For the molecule `Cc1cc(Nc2cc(N3CCN(C)CC3)nc(/C=C/c3ccccc3)n2)n[nH]1` [ENMD-2076], the Kd is > 30 µM (inactive) on Actin-related protein 2; > 30 µM (inactive) in [1]; > 30 µM (inactive) in assay [2]; > 30 µM (inactive) at Ephrin type-B receptor 6; > 30 µM (inactive) in assay [4]; 0.008 µM in assay [8].

`CNC(=O)c1ccc(-c2cnc3ncc(Cc4ccc5ncccc5c4)n3n2)cc1F` [CAPMATINIB]: the Kd (in assay [1]; in assay [2]; in assay [3]; in assay [6]; at Ephrin type-B receptor 6; in assay [7]) was > 30 µM (inactive) throughout. The Kd in assay [4], in assay [8] and in assay [5] was > 30 µM (inactive) in each case.

With `Nc1nc(N)c2nc(-c3cccc(O)c3)c(-c3cccc(O)c3)nc2n1` [TG100-115], the Kd in assay [1], in [2], in assay [3], in assay [4] and in assay [8] was > 30 µM (inactive) each time.

For `CCc1cnn2c(NCc3ccc[n+]([O-])c3)cc(N3CCCC[C@H]3CCO)nc12` [DINACICLIB], the Kd at Actin-related protein 2 is > 30 µM (inactive); in [1] it was > 30 µM (inactive); in [2] it was > 30 µM (inactive); at Ephrin type-B receptor 6 it was > 30 µM (inactive); in assay [7] it was 1.47 µM (active); in assay [4], > 30 µM (inactive). Moreover, the Kd in assay [8] and in [5] was > 30 µM (inactive) throughout.

Turning to `CN1CCC(COc2cnc(-c3cccc(Cn4nc(-c5cccc(C#N)c5)ccc4=O)c3)nc2)CC1` [TEPOTINIB], the Kd (at Actin-related protein 2; in assay [1]; in assay [2]; in assay [3]; in assay [6]; at Ephrin type-B receptor 6) was > 30 µM (inactive) in each case. Besides, the Kd in assay [7], in assay [4] and in assay [8] was > 30 µM (inactive) throughout.

On to `Cc1nc(N)sc1-c1ccnc(Nc2ccc(N3CCOCC3)cc2)n1` [CYC-116], for which the Kd was > 30 µM (inactive) on Actin-related protein 2; 0.111 µM (active) in assay [1]; > 30 µM (inactive) in assay [2]; > 30 µM (inactive) in [6]; 0.073 µM on Ephrin type-B receptor 6; > 30 µM (inactive) in assay [4]. Besides, in assay [8], the Kd was > 30 µM (inactive).

Turning to `Cc1cn(-c2cc(NC(=O)c3ccc(C)c(Nc4nccc(-c5cccnc5)n4)c3)cc(C(F)(F)F)c2)cn1` [NILOTINIB], the Kd (on Actin-related protein 2; in assay [1]; in assay [2]; in assay [3]; in assay [4]; in [8]) was > 30 µM (inactive) each time.

Take `CN1N=C(N)c2cn([C@@H]3O[C@H](COP(=O)(O)O)[C@@H](O)[C@H]3O)c3ncnc1c23` [TRICIRIBINE PHOSPHATE]: the Kd (at Actin-related protein 2; in [1]; in [2]; in [3]; in [6]; in assay [7]) was > 30 µM (inactive) each time. In addition, the Kd in assay [4], in assay [8] and in [5] was > 30 µM (inactive) throughout.

Regarding `O=C(c1ccc(F)c(F)c1Nc1ccc(I)cc1F)N1CC(O)([C@@H]2CCCCN2)C1` [COBIMETINIB], the Kd (in assay [1]; in [2]; in assay [3]; in assay [6]; at Ephrin type-B receptor 6; in assay [7]) was > 30 µM (inactive) in each case. For the same molecule, the Kd in [4], in assay [8] and in assay [5] was > 30 µM (inactive) each time.
